{"source": "patent US20130253058A1", "about": "“SATIETY-INDUCING COMPOSITION” (DSM IP ASSETS B.V., priority 2009, published 2013)", "conditions": "3.5 % lipids in yoghurt", "note": "Like-named read-outs stand apart in the source and are kept apart here.", "protocol": "Analogous to example 2 four yoghurts with 3.5% fat (lipids) were followed during transit in the TNO intestinal Model (TIM).\nThe digestion process in the model was monitored for 5 hours. During the first 3 hours, the gastric content was gradually delivered into the small intestine via the Pyloric valve. At the end of the experiment, approximately 80% of the small intestine content was gradually delivered into the Large intestine via the Ileocecal valve.\nGastric secretions consisted of pepsin from porcine gastric mucosa (EC 3.4.23.1; Sigma-Aldrich Canada) and lipase (EC 3.1.1.3, from Rhizopus oryzae, Amano Pharmaceuticals, Japan), both dissolved in a Gastric Electrolyte Solution (GES: 3.1 g/l NaCl; 1.1 g/l KCl; 0.15 g/l CaCl2; 0.6 g/l NaHCO3). At the beginning of the experiment, a solution of trypsin from porcine pancreas (EC 3.4.21.4; Sigma-Aldrich Canada) was directly introduced into the duodenum. Also, porcine bile extract (supernatant of centrifuged, thawed bile from frozen, fresh collected porcine bile); pancreatic solution (Pancrex V powder; Paines and Byrne, UK), and intestine electrolyte solution (5.0 g/l NaCl; 0.6 g/l KCl; 0.3 g/l CaCl2 at pH 7.0) were delivered in the duodenal compartment.\nPrior to testing the yoghurt containers were gently shaken to homogenise contents. At the beginning of each experiment, a 270 g amount of yoghurt was introduced into the gastric (i.e. stomach)—compartment of the TIM. At specific intervals samples were taken from different compartments of the gastro-intestinal tract (Gastric-; jejunum- and ileum lumen). A selection of fresh lumen samples were also directly visually studied by Bright Field microscope (Leica ATC2000 Binocular Microscope), equipped with a phase contrast mode.\nThe profile of the free fatty acid part of the lipid composition (FFA analysis) was determined by a method developed by the NIZO.\nThe free fatty acid level for all fatty acids in the ileum as well as the saturated fatty acid (FA) fraction C16:0 and C18:0 and higher in the ileum lumen were determined using FFA method as described above."}
{"smiles": "CCCCCCCCCCCCCCCC(=O)O", "note": "[Palmitic acid]", "values": [{"measurement": "Total FFA levels in the ileum lumen", "setting": "1 h", "value": 171.5, "unit": "g FFA/kg dry matter"}, {"measurement": "saturated FFA (C16:0 + C18:0 + C20:0) based on total FFA in the ileum lumen", "setting": "1 h", "value": 91.4, "unit": "w/w %"}, {"measurement": "Total FFA levels in the ileum lumen", "setting": "2 h", "value": 348.3, "unit": "g FFA/kg dry matter"}, {"measurement": "saturated FFA (C16:0 + C18:0 + C20:0) based on total FFA in the ileum lumen", "setting": "2 h", "value": 96.6, "unit": "w/w %"}, {"measurement": "Total FFA levels in the ileum lumen", "setting": "3 h", "value": 504.8, "unit": "g FFA/kg dry matter"}, {"measurement": "saturated FFA (C16:0 + C18:0 + C20:0) based on total FFA in the ileum lumen", "setting": "3 h", "value": 97.8, "unit": "w/w %"}, {"measurement": "Total FFA levels in the ileum lumen", "setting": "4 h", "value": 461.6, "unit": "g FFA/kg dry matter"}, {"measurement": "saturated FFA (C16:0 + C18:0 + C20:0) based on total FFA in the ileum lumen", "setting": "4 h", "value": 97.5, "unit": "w/w %"}, {"measurement": "Total FFA levels in the ileum lumen", "setting": "5 h", "value": 466.2, "unit": "g FFA/kg dry matter"}, {"measurement": "saturated FFA (C16:0 + C18:0 + C20:0) based on total FFA in the ileum lumen", "setting": "5 h", "value": 97.6, "unit": "w/w %"}]}
